The melting point is the temperature, or range, at which the solid turns liquid.

Data set [1] concerns MT-4 cells. Put plainly: Cytotoxicity assay in MT-4 cells (MTT method). The format is cell-based, human. The method, then:
(§1) Cell line and viruses were purchased from the American Type Culture Collection (ATCC). The absence of mycoplasma contamination was checked periodically by the Hoechst staining method. Cell line supporting the multiplication of human immunodeficiency virus type-1 (HIV-1) was the CD4+ human T-cells containing an integrated HTLV-1 genome (MT-4). Cytotoxicity assays were run in parallel with antiviral assays. Exponentially growing MT-4 cells were seeded at an initial density of 1 × 10^5 cells/ml in 96-well plates in RPMI-1640 medium, supplemented with 10 % fetal bovine serum (FBS), 100 units/ml penicillin G, and 100 μg/ml streptomycin. Cell cultures were then incubated at 37 °C in a humidified 5 % CO2 atmosphere in the absence or presence of serial dilutions of test compounds. Cell viability was determined after 96 h at 37 °C by the 3-(4,5-dimethylthiazol-2-yl)-2,5-diphenyl-tetrazolium bromide (MTT) method (Pauwels et al., [1988]).

The subject of data set [2] is HIV-1IIIB. Put plainly: Anti-HIV-1 assay: inhibition of virus-induced cytopathogenicity in MT-4 cells (MTT method). The settings on record: MT-4 cells infected with HIV-1IIIB, m.o.i. 0.01, 4-day incubation, read-out: EC50: compound concentration required to achieve 50 % protection of MT-4 cells from the HIV-1-induced cytopathogenicity. The format is cell-based, human immunodeficiency virus type-1. An excerpt:
Cell line and viruses were purchased from the American Type Culture Collection (ATCC). The absence of mycoplasma contamination was checked periodically by the Hoechst staining method. Cell line supporting the multiplication of human immunodeficiency virus type-1 (HIV-1) was the CD4+ human T-cells containing an integrated HTLV-1 genome (MT-4).
Compound’s activity against HIV-1 was based on inhibition of virus-induced cytopathogenicity in MT-4 cell acutely infected with a multiplicity of infection (m.o.i.) of 0.01. In brief, 50 μl of RPMI containing 1 × 10^4 MT-4 cells were added to each well of flat-bottom microtitre trays, containing 50 μl of RPMI with or without serial dilutions of test compounds. Then, 20 μl of a HIV-1 suspension containing 100 CCID50 was added. After a 4-day incubation at 37 °C, cell viability was determined by the MTT method (Pauwels et al., [1988]).

Data set [3] in a line: Cytotoxicity assay in MT-4 cells (MTT method). The format is cell-based, human. As to conditions: human; mock-infected MT-4 cells, 96 h, MTT method; read-out: CC50: compound concentration required to reduce the viability of mock-infected MT-4 cells by 50 %. On the procedure:
as §1
(In general: Tetrazolium dyes change colour on reduction, which living cells bring about.)

In data set [4] the target is T1, 5-HT1A receptor (Rattus norvegicus, UniProt P19327).
T1 construct: Ligand studies with native 5-HT1A receptor; from tissue
T1 sequence (P19327 1-422): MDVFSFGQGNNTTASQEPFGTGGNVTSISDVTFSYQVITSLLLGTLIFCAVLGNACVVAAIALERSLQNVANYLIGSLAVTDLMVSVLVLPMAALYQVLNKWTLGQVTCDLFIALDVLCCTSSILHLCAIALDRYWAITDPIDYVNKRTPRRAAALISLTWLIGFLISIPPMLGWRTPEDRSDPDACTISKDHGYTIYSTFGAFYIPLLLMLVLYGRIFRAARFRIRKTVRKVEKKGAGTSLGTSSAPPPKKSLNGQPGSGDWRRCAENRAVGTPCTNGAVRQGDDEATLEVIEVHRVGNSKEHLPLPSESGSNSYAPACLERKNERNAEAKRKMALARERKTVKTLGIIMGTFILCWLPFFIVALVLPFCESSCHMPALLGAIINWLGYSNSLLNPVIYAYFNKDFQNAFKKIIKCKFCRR
Put plainly: In vitro ligand binding assay with native 5-HT1A receptor. The method, then: Ligand studies with native 5-HT1A receptor were conducted according to the methods previously described (Lewgowd et al., [2011]).

The mark [5] stands for this setting: Human immunodeficiency virus 1, MT4, 96 h.

Like-named read-outs stand apart in the source and are kept apart here.

In the case of `O=c1cccc2cc3c(-c4ccccc4)c4c(=O)n(CCCCBr)c(=O)c4c(-c4ccccc4)c3c1-2`, the melting point is 241 to 242 °C.

“2-{4-[4-(2-Fluorophenyl)piperazin-1-yl]butyl}-4,10-diphenyl-1H,2H,3H,5H-indeno[1,2-f]isoindole-1,3,5-trione [Compound 15]”: in data set [1], the CC50 is over 100 µM. Moreover, in data set [2], the EC50 is over 100 µM.

The compound “2-{4-[4-(4-Fluorophenyl)piperazin-1-yl]butyl}-4,10-diphenyl-1H,2H,3H,5H-indeno[1,2-f]isoindole-1,3,5-trione [Compound 16]” gave a CC50 in data set [1] of over 100 µM. For the same compound, the EC50 in data set [2] was over 100 µM.

Turning to “4,10-Diphenyl-2-[4-(4-phenylpiperazin-1-yl)butyl]-1H,2H,3H,5H-indeno[1,2-f]isoindole-1,3,5-trione [Compound 12]”, the CC50 in data set [1] was over 100 µM. Besides, the EC50 in data set [2] was over 100 µM.

“4,10-Diphenyl-2-[4-(4-{2-[2-(trifluoromethyl)phenyl]ethyl}piperazin-1-yl)butyl]-1H,2H,3H,5H-indeno[1,2-f]isoindole-1,3,5-trione [Compound 14]” had a CC50 in data set [1] of 9 µM. For the same compound, the EC50 in data set [2] was over 9 µM.

In turn, “4,10-Diphenyl-2-{4-[4-(pyridin-2-yl)piperazin-1-yl]butyl}-1H,2H,3H,5H-indeno[1,2-f]isoindole-1,3,5-trione [Compound 13]” displayed a CC50 in data set [1] of over 100 µM. Further, the EC50 in data set [2] was over 100 µM.

Compound `O=C1C2C(C(=O)N1CCCCN1CCN(c3ccccn3)CC1)C1(c3ccccc3)C(=O)C2(c2ccccc2)c2c1c1ccccc1c1ccccc21` (stereo not drawn) [Compound 3, 1,16-Diphenyl-19-(4-(4-pyridin-2-ylpiperazin-1-yl)butyl)-19-azahexacyclo-[14.5.1.0^2,15.0^3,8.0^9,14.0^17,21]docosa-2,3,5,7,8,9,11,13,14-nonaene-18,20,22-trione] had a melting point of 200 to 203 °C. Further, in data set [3], the CC50 at 96 h was 90 µM. In data set [2] (setting [5]), the EC50 was over 90 µM.

In turn, `COc1ccccc1N1CCN(CCCCN2C(=O)C3C(C2=O)C2(c4ccccc4)C(=O)C3(c3ccccc3)c3c2c2ccccc2c2ccccc32)CC1` (stereo not drawn) [Compound 4, 19-(4-(4-(2-(Methyloxy)phenyl)piperazin-1-yl)butyl)-1,16-diphenyl-19-azahexa-cyclo[14.5.1.0^2,15.0^3,8.0^9,14.0^17,21]docosa-2,3,5,7,8,9,11,13,14-nonaene-18,20,22-trione] yielded a melting point of 197 to 200 °C. For the same compound, the “activity to the 5-HT1A receptor” value in data set [4] is on record as “moderate activity”.

In turn, `O=C1C2C(C(=O)N1CCCCN1CCN(c3ccc(Cl)cc3)CC1)C1(c3ccccc3)C(=O)C2(c2ccccc2)c2c1c1ccccc1c1ccccc21` (stereo not drawn) [Compound 6, 19-(4-(4-(4-Chlorophenyl)piperazin-1-yl)butyl)-1,16-diphenyl-19-azahexacyclo-[14.5.1.0^2,15.0^3,8.0^9,14.0^17,21]docosa-2,3,5,7,8,9,11,13,14-nonaene-18,20,22-trione] had a melting point of 220 to 221 °C. Moreover, the CC50 at 96 h in data set [3] was over 100 µM. For the same compound, the EC50 in data set [2] (setting [5]) is over 100 µM.

`O=C1C2C(C(=O)N1CCCCN1CCN(c3ccccc3F)CC1)C1(c3ccccc3)C(=O)C2(c2ccccc2)c2c1c1ccccc1c1ccccc21` (stereo not drawn) [Compound 7, 19-(4-(4-(2-Fluorophenyl)piperazin-1-yl)butyl)-1,16-diphenyl-19-azahexacyclo-[14.5.1.0^2,15.0^3,8.0^9,14.0^17,21]docosa-2,3,5,7,8,9,11,13,14-nonaene-18,20,22-trione] yielded a melting point of 205 to 207 °C. Also, the CC50 at 96 h in data set [3] was over 100 µM. Moreover, the EC50 in data set [2] (setting [5]) was over 100 µM.

Consider `CC(=O)c1ccc(N2CCN(CCCCN3C(=O)C4C(C3=O)C3(c5ccccc5)C(=O)C4(c4ccccc4)c4c3c3ccccc3c3ccccc43)CC2)cc1` (stereo not drawn) [Compound 8, 19-(4-(4-(4-Acetylphenyl)piperazin-1-yl)butyl)-1,16-diphenyl-19-azahexacyclo-[14.5.1.0^2,15.0^3,8.0^9,14.0^17,21]docosa-2,3,5,7,8,9,11,13,14-nonaene-18,20,22-trione], for which the melting point was 202 to 204 °C. Moreover, the CC50 at 96 h in data set [3] was over 100 µM. The EC50 in data set [2] (setting [5]) is over 100 µM.

Compound `O=c1[nH]c(=O)c2c(-c3ccccc3)c3c(c(-c4ccccc4)c12)c(=O)c1ccccc13` [Compound 10, 4,10-diphenyl-1H,2H,3H,5H-indeno[1,2-f]isoindole-1,3,5-trione] returned a CC50 in data set [1] of 9 µM. In addition, the EC50 in data set [2] is over 9 µM.

In turn, `O=c1c2ccccc2c2c(-c3ccccc3)c3c(=O)n(CCCCN4CCN(c5ccc(Cl)cc5)CC4)c(=O)c3c(-c3ccccc3)c12` [Compound 17, 2-{4-[4-(4-Chlorophenyl)piperazin-1-yl]butyl}-4,10-diphenyl-1H,2H,3H,5H-indeno[1,2-f]isoindole-1,3,5-trione] displayed a CC50 in data set [1] of over 100 µM. Moreover, the EC50 in data set [2] was over 100 µM.

As to `O=c1c2ccccc2c2c(-c3ccccc3)c3c(=O)n(CCCCN4CCN(c5ccccc5Cl)CC4)c(=O)c3c(-c3ccccc3)c12` [Compound 18, 2-{4-[4-(2-Chlorophenyl)piperazin-1-yl]butyl}-4,10-diphenyl-1H,2H,3H,5H-indeno[1,2-f]isoindole-1,3,5-trione], in data set [1], the CC50 was over 100 µM. Also, in data set [2], the EC50 is over 100 µM.

Compound `COc1ccccc1N1CCN(CCCCn2c(=O)c3c(-c4ccccc4)c4c(=O)c5ccccc5c4c(-c4ccccc4)c3c2=O)CC1` [Compound 19, 2-{4-[4-(2-metoxyphenyl)piperazin-1-yl]butyl}-4,10-diphenyl-1H,2H,3H,5H-indeno[1,2-f]isoindole-1,3,5-trione] yielded a melting point of 245 to 246 °C. For the same compound, in data set [3], the CC50 at 96 h is over 100 µM. For the same compound, the EC50 in data set [2] (setting [5]) is over 100 µM.

As to `O=C1Nc2ccc(Cl)cc2[C@@](C#CC2CC2)(C(F)(F)F)O1` [Efavirenz, reference compound], in data set [3], the CC50 at 96 h stood at 45 µM. In addition, in data set [2] (setting [5]), the EC50 worked out at 0.002 µM.

Values taken from PMC3905170, “Synthesis and structure evaluation of new complex butylarylpiperazin-1-yl derivatives” (Medicinal Chemistry Research, 2013).
